{"source": "patent US8394630B2", "about": "“Producing a mammalian pluripotent cell population from mammalian blastomere-like stem cells (BLSCs)” (StemBios Technologies, Inc., priority 2009, dated 2013)", "system": "BLSCs", "assay": "Culturing BLSCs in medium containing RA or TGF-β to produce SBR and SBT cells", "assay_type": "cell-based, human", "conditions": "StemBios-003 medium, 0.1 to 20 μM RA or 1 to 40 nM TGF-β, over 2-6 weeks", "description": "The method for activation, purification, and expansion of BLSCs has been described in WO/2007/100845. In this example, BLSCs were purified from blood of a human subject using two methods. The isolated cells were analyzed by flow cytometry.\nThe purified BLSCs were cultured in StemBios-001. To produce SBR and SBT cells, BLSCs were cultured in a StemBios-002 medium for 2 weeks. Then, the BLSCs were cultured in a StemBios-003 medium containing 0.1 to 20 μM of RA or 1 to 40 nM of TGF-β for over 2˜6 weeks. […] These cells were named SBR and SBT cells respectively.", "data": [{"substance": "TGF-β", "values": [{"measurement": "change of morphology and sizes of cultured BLSCs", "value": "gradually changed their morphology and sizes"}]}]}
